This note sets out measurements from US7655671B2, “Morphinan derivatives, the quaternary ammonium salts thereof substituted in position 14, method for production and use thereof” (priority 2002, dated 2010).

Counter-ions that a name gives are not always drawn.

Turning to `C=CCN1CC[C@]23c4c5ccc(OC)c4O[C@H]2C(=O)CC[C@@]3(OCCCc2ccccc2)C1C5`, the melting point (in general, the temperature, or range, at which the solid turns liquid) was in the range of 129 to 130 °C.

With `CCN1CC[C@]23c4c5ccc(OC)c4O[C@H]2C(=O)CC[C@@]3(OCCCc2ccccc2)[C@H]1C5`, the melting point lay within 95 to 101 °C.

Regarding `COc1ccc2c(c1O)[C@]13CCN(C)[C@H](C2)[C@]1(OCCCc1ccccc1)CCC(=O)C3`, the melting point is > 258 °C (dec.).

For `COc1ccc2c(c1OC)[C@]13CCN(C)C(C2)[C@]1(OCCCc1ccccc1)CCC(=O)C3`, the melting point was 110 to 115 °C.

In turn, `CCO[C@@]12CCC(=O)[C@@H](C)[C@@]13CCN(C)[C@@H]2Cc1ccc(OC)c(O)c13` showed a melting point of 122 to 129 °C.

`CCO[C@@]12CCC(=O)[C@@H](C)[C@@]13CCN(C)C2Cc1ccc(OC)c(OC)c13` registered a melting point of 135 to 141 °C.

The compound `COc1ccc2c(c1OC)[C@]13CCN(C)C(C2)[C@]1(O)CCC(=O)[C@H]3C` returned a melting point of 122 to 124 °C.

With `COc1ccc2c(c1OC)[C@]13CCN(C)[C@H](C2)[C@]1(OCc1ccccc1)CCC(=O)[C@H]3C`, the melting point was in the range of 166 to 167 °C.

For the compound `CC[N@@+]1(C)CC[C@]23c4c5ccc(O)c4O[C@H]2C(=O)CC[C@@]3(OCCCc2ccccc2)[C@H]1C5.[I-]`, the melting point lay in the range of 171 to 176 °C.

`CCCCOC12CCC(=O)C3(Cc4ccccc4)Oc4c(O)ccc5c4[C@@]31CC[N+](C)(C)C2C5.[I-]` (stereo partly shown) displayed a melting point of 188 to 195 °C.

As to `C=CC[N@+]1(C)CC[C@]23c4c5ccc(O)c4OC2(Cc2ccccc2)C(=O)CCC3(OCCCC)C1C5.[I-]` (stereo partly shown), the melting point was in the range of 200 to 205 °C.

`CCCCO[C@@]12CCC(=O)[C@@H]3Oc4c(O)ccc5c4[C@@]31CC[N+](C)(C)[C@@H]2C5.[I-]` gave a melting point of 180 to 185 °C.

Consider `C[N@+]1(CC2CC2)CC[C@]23c4c5ccc(O)c4O[C@H]2C(=O)CC[C@@]3(OCc2ccccc2-c2ccccc2)[C@H]1C5.[I-]`, for which the melting point was in the range of 219 to 221 °C.

In the case of `C[N@+]1(CC2CC2)CC[C@]23c4c5ccc(O)c4O[C@H]2C(=O)CC[C@@]3(OCc2ccc(Cl)cc2)[C@H]1C5.[I-]`, the melting point lay in the range of 214 to 219 °C.

`COC12CCC(=O)C3Oc4c(O)ccc5c4[C@@]31CC[N@+](C)(CCc1ccccc1)C2C5.[I-]` (stereo partly shown) returned a melting point of 180 to 181 °C.

As to `O=C1CC[C@@]2(OCc3ccccc3)[C@H]3Cc4ccc(O)c5c4[C@@]2(CCN3CC2CC2)[C@H]1O5` (as salt: hydrobromid), the melting point was > 210 °C (dec.).

`Cc1ccccc1CO[C@@]12CCC(=O)[C@@H]3Oc4c(O)ccc5c4[C@@]31CCN(CC1CC1)[C@@H]2C5` (as salt: hydrochloride): the melting point was 198 to 200 °C.

`O=C1CC[C@@]2(OCc3ccccc3Cl)[C@H]3Cc4ccc(O)c5c4[C@@]2(CCN3CC2CC2)[C@H]1O5` (as salt: hydrochloride) displayed a melting point of 165 to 168 °C.

On to `CCCCO[C@@]12CCC(=O)[C@@H]3Oc4c(O)ccc5c4[C@@]31CCN(CC1CC1)[C@@H]2C5` (as salt: hydrochloride), for which the melting point is 240 °C (dec.).

Turning to `CC(C)CCO[C@@]12CCC(=O)[C@@H]3Oc4c(O)ccc5c4[C@@]31CCN(CC1CC1)[C@@H]2C5` (as salt: hydrochloride), the melting point fell in the range of 168 to 170 °C.

Compound `CC#COc1ccc2c3c1O[C@H]1C(=O)CC[C@@]4(OCc5cccc(Cl)c5)C(C2)N(C)CC[C@]314` (as salt: hydrochloride) showed a melting point of 145 to 150 °C.

`COc1ccc2c3c1O[C@H]1C(=O)CC[C@@]4(OCCCc5ccccc5)[C@@H](C2)N(CC2CCC2)CC[C@]314` (as salt: hydrochloride) had a melting point of 128 to 133 °C.

The compound `CCN1CC[C@]23c4c5ccc(O)c4O[C@H]2C(=O)CC[C@@]3(OCCCc2ccccc2)[C@H]1C5` (as salt: hydrochloride) came in with a melting point of 178 to 180 °C.

Consider `CCCN1CC[C@]23c4c5ccc(O)c4O[C@H]2C(=O)CC[C@@]3(OCCC(C)C)[C@H]1C5` (as salt: hydrochloride), for which the melting point is 175 to 185 °C (dec.).

Turning to `COc1ccc2c(c1O)[C@]13CCN(C)[C@H](C2)[C@]1(OCc1ccccc1)CCC(=O)C3` (as salt: hydrochloride), the melting point was > 220 °C (dec.).

Consider `COc1ccc2c(c1OC)[C@]13CCN(C)[C@H](C2)[C@]1(OCc1ccccc1)CCC(=O)C3` (as salt: hydrochloride), for which the melting point lay in the range of 140 to 145 °C.

Take `COc1ccc2c(c1O)[C@]13CCN(C)[C@H](C2)[C@]1(OCc1ccc2ccccc2c1)CCC(=O)C3` (as salt: hydrochloride): the melting point was in the range of 195 to 197 °C.

In turn, `COc1ccc2c3c1O[C@H]1C(=O)CC[C@@]4(OCCCc5ccccc5)[C@@H](C2)N(CC2CC2)CC[C@]314` (as salt: hydrochloride) gave a melting point of 130 to 133 °C.

In turn, `COc1ccc2c(c1OC)[C@]13CCN(C)[C@H](C2)[C@]1(OCc1ccc2ccccc2c1)CCC(=O)C3` (as salt: hydrochloride) gave a melting point of 165 to 170 °C.

`COc1ccc2c(c1O)[C@]13CCN(C)[C@H](C2)[C@]1(OCCCc1ccccc1)CCC(=O)[C@H]3C` (as salt: hydrochloride): the melting point is > 210 °C (dec.).

Turning to `COc1ccc2c3c1O[C@H]1C(=O)CC[C@@]4(OCCCc5ccccc5)C(C2)N(CC2CCCO2)CC[C@]314` (stereo partly shown) (as salt: hydrochloride), the melting point lay within 121 to 123 °C.

The compound `COc1ccc2c3c1O[C@H]1C(=O)CC[C@@]4(OCCCc5ccccc5)[C@@H](C2)N(CCc2ccccc2)CC[C@]314` (as salt: hydrochloride) [Compound 4, 4,5α-epoxy-3-methoxy-17-(2-phenylethyl)-14β-(3-phenylpropyloxy)morphinan-6-one hydrochloride] gave a melting point of 128 to 130 °C.

In the case of `O=C1CC[C@@]2(OCCCc3ccccc3)[C@H]3Cc4ccc(O)c5c4[C@@]2(CCN3CC2CCC2)[C@H]1O5` (as salt: hydrochloride) [Compound 7, 17-cyclobutylmethyl-4,5α-epoxy-3-hydroxy-14β-(3-phenylpropyloxy)morphinan-6-one hydrochloride], the melting point was > 227 °C (dec.).

`O=C1CC[C@@]2(OCCCc3ccccc3)[C@H]3Cc4ccc(O)c5c4[C@@]2(CCN3CCc2ccccc2)[C@H]1O5` (as salt: hydrochloride) [Compound 9, 4,5α-epoxy-3-hydroxy-17-(2-phenylethyl)-14β-(3-phenylpropyloxy)morphinan-6-one hydrochloride]: the melting point is > 218 °C (dec.).

`O=C1CC[C@@]2(OCCCc3ccccc3)C3Cc4ccc(O)c5c4[C@@]2(CCN3CC2CCCO2)[C@H]1O5` (stereo partly drawn) (as salt: hydrochloride) [Compound 10, 4,5α-epoxy-17-[2-((R,S)-tetrahydrofuran-2-yl)methyl]-3-hydroxy-14β-(3-phenylpropyloxy)morphinan-6-one hydrochloride] registered a melting point of 170 to 172 °C.

For the compound `COc1ccc2c(c1O)[C@]13CCN(C)[C@H](C2)[C@]1(O)CCC(=O)[C@H]3C` (stereo in doubt), the melting point was > 185 °C (dec.).

`CCCCOc1cccc2c1[C@]13CC[N@@H+](CC4CC4)C(C2)[C@]1(OCCCc1ccccc1)CCC(=O)C3.[Cl-]` (stereo in doubt) returned a melting point of 172 to 177 °C.
